PubChem BioAssay AID1996
≈ marks a conversion by molar mass, not a printed value.

Conditions: buffer; pH 7.4; 200.0 µM

SMILES | solubility kinetic [µg/mL]
O=C1CC(C2CCCO2)C(=O)N1c1ccc(Cl)c(Cl)c1 (stereo not given) | > 47.1
CC(Sc1nnc(N)s1)C(=O)Nc1nccs1 (stereo not given) | > 43.1
CCN(CC)C(=O)C(Oc1ccc(C)nc1[N+](=O)[O-])c1ccccc1 (stereo not given) | 48.6 (≈ 142 µM)
CCCOc1cccc(C(=O)NCCNC(=O)c2ccc(C)nc2)c1 | > 51.2
O=C(c1cccnc1)N1CCCC(Nc2ccc(F)cc2)C1 (stereo not given) | 41.6 (≈ 139 µM)
CC(=O)c1c(COC(=O)c2ccc(Cl)cc2)nc2ccccc2[n+]1[O-] | 0.6 (≈ 1.68 µM)
Cc1ccc(NC(=O)COC(=O)CNC(=O)c2ccco2)cc1 | 44.7 (≈ 141 µM)
O=C(COC(=O)CNC(=O)c1ccccc1)NCCCc1ccccc1 | 52.3 (≈ 148 µM)
CCc1ccc(NC(=O)N2CCCCCC2)cc1 | 31.9 (≈ 129 µM)
C=CCNC(=O)NC(=O)CSc1nnc(C(F)(F)F)n1C | > 48.5
Cc1cc(C)n(NC(=S)NC2CCCCC2)c(=O)c1C#N | > 45.7
Cc1cccc(C)c1NC(=O)C(=O)c1cn(C)c2ccccc12 | < 0.3
CC(=O)Nc1ccc(/C=N/N2C(C)CCCC2C)cc1 (stereo not given) | > 41
CCSc1nsc(NC(=O)Nc2ccc(F)cc2F)n1 | 1.7 (≈ 5.37 µM)
COc1ccc(OC)c(NC(=O)COC(=O)C2CCCCC2)c1 | 2.9 (≈ 9.02 µM)
O=C(Nc1ccccc1)C1CC2CCC1C2 (stereo not given) | 31.8 (≈ 148 µM)
C=CCNC(=O)c1ccc(NC(=O)C2=CSCCO2)cc1 | > 45.7
O=C(CNC(=O)c1ccco1)Nc1ccc(Cl)cc1 | 24.1 (≈ 86.5 µM)
O=C(NC1CCCCNC1=O)c1ccccc1 (stereo not given) | > 34.8
Cc1ccc2[nH]c(C(=O)Nc3ccc(F)cc3)cc2c1 | < 0.3

SMILES | solubility kinetic [µg/mL]
O=C(NC1CCC1)C1CCC(=O)N(Cc2ccccc2F)C1 (stereo not given) | > 45.7
O=C(/C=C/c1ccc([N+](=O)[O-])cc1)OCC(=O)N1CCCCCC1 | 18.9 (≈ 56.9 µM)
Nc1ccc(SCc2cccnc2)cc1 | 31 (≈ 143 µM)
Cc1ccc(S(=O)(=O)NCCN2CCOCC2)s1 | > 43.6
O=c1c2[nH]cnc2n(-c2cccc(F)c2)c(=O)n1Cc1ccccc1 | > 50.4
Cc1oc(-c2ccc(Cl)cc2)cc1C(=O)/C(C#N)=C/Nc1ccccc1 | 1.4 (≈ 3.86 µM)
Cc1ccc(C(=O)NCC(c2ccc(F)cc2)N2CCOCC2)s1 (stereo not given) | > 52.3
Cc1ccc(NC(=O)c2ccc(=O)[nH]c2)cc1S(=O)(=O)N1CCCCCC1 | > 58.4
O=C(Nc1cccc(F)c1)Nc1ccc(Cl)cn1 | < 0.2
Cc1ccc(NC(=O)COC(=O)[C@@H]2CC(O)CN2S(=O)(=O)c2ccc3c(c2)OCCO3)cc1 (stereo not given in full) | > 71.5
N#Cc1ccsc1NC(=O)CCS(=O)(=O)c1ccccc1 | 41.7 (≈ 130 µM)
CCCNC(=O)N1c2ccccc2Sc2ccccc21 | 33.6 (≈ 118 µM)
O=C(COC(=O)c1ccc([N+](=O)[O-])o1)Nc1ccc(F)cc1 | > 46.2
CCN(CC)C(=O)c1cccc(NC(=O)C2=COCCO2)c1 | > 45.7
COc1ccc(-c2noc(CN(C)Cc3ccccc3)n2)cc1 | 5.7 (≈ 18.4 µM)
O=C(O)c1cccnc1SCc1ccccc1Cl | > 42
N/C(=N\O)c1ccc(N2CCN(c3ncccc3C(F)(F)F)CC2)nc1 | 51.7 (≈ 141 µM)
Cc1sc2ncnc(N3CCCC(C)C3)c2c1C.Cl (stereo not given) | 11
CN1CCCN(C(=O)c2cc3c(s2)CCCC3)CC1 | 39.7 (≈ 143 µM)
Cc1cc(C)nc(NC(C)(C)C(=O)O)n1 | > 31.4

SMILES | solubility kinetic [µg/mL]
CC(=O)OC1CCC2(/C=N/O)C(=CCC3C4CCC(=O)C4(C)CCC32)C1 (stereo not given) | > 53.9
NC(=O)C1CCN(C(=O)CCc2ccsc2)CC1 | > 40
CSc1nc2ccccc2c(=O)n1-c1cccnc1 | 34.8 (≈ 129 µM)
CC1(C)Cc2cccc(OCC(=O)Nc3ccccc3C(F)(F)F)c2O1 | 7.5 (≈ 20.5 µM)
CC(=O)NC1CCN(CC(=O)Nc2cccc([N+](=O)[O-])c2)CC1 | 43.7 (≈ 136 µM)
c1ccc(CCCN2CCOCC2)cc1 | 19.2 (≈ 93.5 µM)
COc1ccc(Cl)cc1NS(=O)(=O)N1CCOCC1 | > 46
NS(=O)(=O)c1ccc(NC(=O)/C=C/c2cccc(Cl)c2)cc1 | 1.4 (≈ 4.16 µM)
NC(=O)COC(=O)c1ccc2noc(-c3ccccc3)c2c1 | 26.1 (≈ 88.1 µM)
COc1ccc(C2SCC(=O)N2c2ccc(F)cc2)cc1 (stereo not given) | 35.2 (≈ 116 µM)
Cc1cnc(C(=O)Nc2cc(F)ccc2C)cn1 | 15.6 (≈ 63.6 µM)
O=C(NC1CCS(=O)(=O)C1)c1sc2ccccc2c1Cl (stereo not given) | 12.2 (≈ 37 µM)
Cc1ccsc1C1C(C#N)=C(N)OC2=C1C(=O)CC(C)C2 (stereo not given) | 38.7 (≈ 129 µM)
COC(=O)c1cn(C(=O)c2cc(Cl)ccc2Cl)c2ccccc12 | < 0.7
O=[N+]([O-])c1ccc(CNc2ccc(Cl)cc2)s1 | 6.5 (≈ 24.2 µM)
COc1ccc(NC(=O)c2ccccc2-c2ccccc2C(=O)O)cc1 | > 52.1
COc1ccc(C(=O)NCCn2cc(SCC(N)=O)c3ccccc32)cc1 | 50.6 (≈ 132 µM)
O=C(CN1C(=O)S/C(=C\c2ccccn2)C1=O)Nc1ccccc1 | 1.5 (≈ 4.42 µM)
CC(C)c1ccc([N+](=O)[O-])cc1S(=O)(=O)N1CCN(C)CC1 | > 49.1
CNC(=S)NC1(C)CCS(=O)(=O)C1 (stereo not given) | > 33.3
